Source: patent US11802128B2, “Azetidine and pyrrolidine PARP1 inhibitors and uses thereof” (Xinthera, Inc., priority 2021, dated 2023)
Read-outs that look alike come from different tables or passages of the source.

Assays:
PARP1 = PARP1 (Homo sapiens (Human), UniProt P09874); assay: Biochemical fluorescent polarization (FP) assay, displacement of PARPi-FL; type: binding; settings: 20 nM protein, 3 nM PARPi-FL, 4 h at room temperature
Protocol: (§1) The assay was performed utilizing the following method:
(§2) 100% DMSO was used for the high (with protein) and low (without protein) control samples. 20 nL of compound or DMSO alone was added to individual assay plate wells.
(§3) PARP1 and PARP2 protein were expressed, purified, and diluted in assay buffer containing 50 mM Tris pH 8.0, 0.001% Triton X-100, 10 mM MgCl2, 150 mM NaCl to a final concentration of 20 nM. The PARPi-FL was then added at a final concentration of 3 nM.
(§4) The assay plate is centrifuged at 1000 rpm for 1 min and incubated for 4 h at room temperature.
(§5) The fluorescent polarization is read using an Envision plate reader using the following settings: […]

PARP2 = PARP2 (Homo sapiens (Human), UniProt Q9UGN5); assay: as above; type: binding
PARP2, sequence (Q9UGN5 whole entry): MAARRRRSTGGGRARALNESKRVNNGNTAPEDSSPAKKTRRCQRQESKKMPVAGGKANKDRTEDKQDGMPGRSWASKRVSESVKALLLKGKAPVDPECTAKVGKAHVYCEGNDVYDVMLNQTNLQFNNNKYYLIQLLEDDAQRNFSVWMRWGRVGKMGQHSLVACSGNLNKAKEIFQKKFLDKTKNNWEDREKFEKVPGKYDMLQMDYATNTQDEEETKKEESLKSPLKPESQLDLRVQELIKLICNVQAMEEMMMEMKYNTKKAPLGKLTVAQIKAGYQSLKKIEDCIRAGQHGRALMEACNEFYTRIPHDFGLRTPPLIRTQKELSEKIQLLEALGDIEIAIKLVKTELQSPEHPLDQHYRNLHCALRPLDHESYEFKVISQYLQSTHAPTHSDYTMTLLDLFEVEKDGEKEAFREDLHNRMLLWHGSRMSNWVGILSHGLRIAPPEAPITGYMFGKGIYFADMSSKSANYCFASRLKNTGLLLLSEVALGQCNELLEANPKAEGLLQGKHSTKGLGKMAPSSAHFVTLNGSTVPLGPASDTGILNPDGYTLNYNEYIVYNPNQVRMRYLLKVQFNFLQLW
Protocol: as §1, §2, §3, §4, §5

[1] = system: MDA-MB-436 (mutated BRCA1) cells; assay: Cell growth inhibition assay (CellTiter-Glo cell viability, 7 days); type: cell-based; settings: Homo sapiens, 168 h, MDA-MB-436, 7 days
Source text: (§6) The objective of this study is to evaluate the effect of invention compounds on cell proliferation through the cell viability assay in DLD-1 BRCA2(−/−) and parental isogenic pair and MDA-MB-436 (mutated BRCA1) cell lines. The CellTiter-Glo (CTG) based cell viability assay is designed to determine the number of viable cells in the culture because of compound effect, by quantifying ATP, which indicates the presence of metabolically active cells.
(§7) DLD-1 BRCA2(−/−) and parental isogenic pair were cultured in RPMI 1640 supplemented with 10% fetal bovine serum (FBS), and MDA-MB-436 cells were cultured in DMEM supplemented with 10% FBS. Both are culture at 37° C. with 5% CO2. Invention compounds were distributed to the 384 well plate (Corning, 3764) using Echo acoustic liquid handler to form a 1:3 serially diluted final concentration with top dose of 10 or 30 μM. The cells were seeded into the plate in the density of 50 cells/well (DLD-1 parental), 200 cells/well (DLD-1 BRCA2−/−), or 500 cells/well (MDA-MB-436). After a short spun, the cells were cultured in a well moisturized incubator at 37° C. with 5% CO2 for 7 days without disturbance. The cell viability was measured by CellTiter Glo 2.0 assay kit (Promega, G9243), and growth inhibition rate was calculated and plotted against final compound concentration, and the data were fitted in Xfit to generate IC50.

DLD-1 BRCA2(−/−) cells = assay: as above; type: cell-based; settings: Homo sapiens, 168 h
Source text: as §6, §7

[2] = 20 nM protein, 3 nM PARPi-FL, 4 h at room temperature, read-out: IC50 FP PARP2

PARP1, sequence (P09874 whole entry): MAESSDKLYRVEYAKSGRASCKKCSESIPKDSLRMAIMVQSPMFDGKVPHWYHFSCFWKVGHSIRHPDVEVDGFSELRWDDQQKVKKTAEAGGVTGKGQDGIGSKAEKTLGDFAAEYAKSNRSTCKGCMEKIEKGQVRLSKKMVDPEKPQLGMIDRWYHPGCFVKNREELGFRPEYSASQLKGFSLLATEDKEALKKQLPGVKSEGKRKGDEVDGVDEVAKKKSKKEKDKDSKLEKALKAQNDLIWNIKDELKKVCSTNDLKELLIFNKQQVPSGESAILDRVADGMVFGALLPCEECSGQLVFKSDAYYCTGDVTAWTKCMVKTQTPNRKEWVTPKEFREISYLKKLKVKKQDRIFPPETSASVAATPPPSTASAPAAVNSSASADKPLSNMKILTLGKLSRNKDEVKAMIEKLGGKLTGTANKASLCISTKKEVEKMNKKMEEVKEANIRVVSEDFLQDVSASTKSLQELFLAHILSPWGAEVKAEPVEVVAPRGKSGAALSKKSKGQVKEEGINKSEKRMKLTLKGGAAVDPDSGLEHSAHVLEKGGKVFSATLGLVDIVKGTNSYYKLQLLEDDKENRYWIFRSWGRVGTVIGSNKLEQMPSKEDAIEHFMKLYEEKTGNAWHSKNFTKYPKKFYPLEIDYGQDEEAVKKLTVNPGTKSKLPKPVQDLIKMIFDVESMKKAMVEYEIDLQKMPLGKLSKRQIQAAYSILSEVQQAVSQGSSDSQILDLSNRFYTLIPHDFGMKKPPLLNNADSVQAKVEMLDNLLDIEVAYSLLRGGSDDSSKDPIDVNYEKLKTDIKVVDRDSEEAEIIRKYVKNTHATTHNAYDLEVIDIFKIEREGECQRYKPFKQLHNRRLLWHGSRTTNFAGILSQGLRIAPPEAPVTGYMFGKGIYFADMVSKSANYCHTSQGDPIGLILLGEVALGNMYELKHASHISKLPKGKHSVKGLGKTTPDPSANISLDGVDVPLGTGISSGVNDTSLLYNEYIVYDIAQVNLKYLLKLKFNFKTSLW

Compound	IC50 (PARP1) [nM]	IC50 (PARP2) [nM]	EC50 [1] [nM]	EC50 (DLD-1 BRCA2(−/−) cells) [nM]	IC50 (PARP2; [2]) [nM]
[2H]C([2H])([2H])NC(=O)c1ccc(O[C@H]2CN(C([2H])([2H])c3cnc4cc(CC)c(=O)[nH]c4c3)[C@@H]2C)cn1 [Example 45]	5	6900	0.87	1.5	
Cc1cc2ncc(CN3C[C@H](Oc4ccc(C(=O)N[C@@H]5CC5(F)F)nc4)[C@H]3C)cc2[nH]c1=O (single isomer, unassigned) [Example 90]	8.5		1.8	2.8	3100
C[C@@H]1[C@@H](Oc2ccc(C(=O)NC3CC3)nc2)CN1Cc1cnc2cc(Cl)c(=O)[nH]c2c1 [Example 76, 5-{[(2R,3S)-1-[(7-chloro-6-oxo-5H-1,5-naphthyridin-3-yl)methyl]-2-methylazetidin-3-yl]oxy}-N-cyclopropylpyridine-2-carboxamide]	2.8		1.1	1.4	8700
CCc1cc2ncc(CN3CC[C@@H](Oc4cnc(C(=O)NC)c(F)c4)C3)cc2[nH]c1=O [Example 27]	6.7		18	19	9100
CCc1nc2cc(F)c(CN3CC(Oc4ccc(C(=O)NC)nc4)C3)cc2[nH]c1=O [Example 30]	7.7		47	15	> 100000
CCc1cc2ncc(CN3CC(Nc4ccc(C(=O)NC)nc4)C3)cc2[nH]c1=O [Example 14, 5-({1-[(7-ethyl-6-oxo-5H-1,5-naphthyridin-3-yl)methyl]azetidin-3-yl}amino)-N-methylpyridine-2-carboxamide]	5.2		4.1	9.8	14000
CCc1cc2ncc(CN3C[C@H](Oc4ccc(C(=O)NC5CC5)nc4)[C@H]3C)cc2[nH]c1=O [Example 43, N-cyclopropyl-5-{[(2R,3S)-1-[(7-ethyl-6-oxo-5H-1,5-naphthyridin-3-yl)methyl]-2-methylazetidin-3-yl]oxy}pyridine-2-carboxamide]	6.6		0.46	1.1	2900
CCc1cc2ncc(CN3C[C@H](Oc4ccc(C(=O)NC)nc4)[C@@H]3C)cc2[nH]c1=O [Example 20, 5-(((2S,3S)-1-((7-ethyl-6-oxo-5,6-dihydro-1,5-naphthyridin-3-yl)methyl)-2-methylazetidin-3-yl)oxy)-N-methylpicolinamide]	5.6		35	40	19000
CCc1cc2ncc(CN3C[C@H](Oc4cnc(C(=O)NC5CC5)c(F)c4)[C@H]3C)cc2[nH]c1=O [Example 66, N-cyclopropyl-5-{[(2R,3S)-1-[(7-ethyl-6-oxo-5H-1,5-naphthyridin-3-yl)methyl]-2-methylazetidin-3-yl]oxy}-3-fluoropyridine-2-carboxamide]	3.3		1	2.1	6400
CCc1cc2ncc([C@@H](C)N3C[C@H](Oc4ccc(C(=O)NC)nc4)[C@H]3C)cc2[nH]c1=O (single isomer, unassigned) [Example 54, 5-{[(2R,3S)-1-[(1R*)-1-(7-ethyl-6-oxo-5H-1,5-naphthyridin-3-yl)ethyl]-2-methylazetidin-3-yl]oxy}-N-methylpyridine-2-carboxamide]	4.5		0.62	1.2	900
CCc1cc2ncc(CN3C[C@H](Oc4ccc(C(=O)NC)nc4)[C@H]3C)cc2[nH]c1=O [Example 17, 5-{[(2R,3S)-1-[(7-ethyl-6-oxo-5H-1,5-naphthyridin-3-yl)methyl]-2-methylazetidin-3-yl]oxy}-N-methylpyridine-2-carboxamide]	7.3		0.79	1.2	21000
CCc1cc2ncc(CN3CC(Oc4ccc(C#N)nc4)C3)cc2[nH]c1=O [Example 24]	9.1		24	13	17000
CCc1cc2ncc(CN3C[C@H](Oc4ccc(C#N)cc4)[C@H]3C)cc2[nH]c1=O [Example 48]	6.2		3.2	5.7	3500
Cc1cc2ncc(CN3C[C@H](Oc4ccc(C(=O)N[C@H]5CC5(F)F)nc4)[C@H]3C)cc2[nH]c1=O (single isomer, unassigned) [Example 89]	7.2		1.1	1.8	9600
Cc1cc2ncc(CN3C[C@H](Oc4ccc(C(=O)NC5CC(F)(F)C5)nc4)[C@H]3C)cc2[nH]c1=O [Example 80]	3.8		1.8	4.3	5300
CNC(=O)c1ccc(O[C@H]2CN(Cc3cnc4cc(C5CC5)c(=O)[nH]c4c3)[C@@H]2C)cn1 [Example 41]	7.6		3	3.2	8300
CCc1cc2ncc(CN3C[C@H](Oc4ccc(C#N)nc4)[C@H]3C)cc2[nH]c1=O [Example 36]	5		3.7	12	15000
CCc1cc2ncc(CN3CC[C@@H](Oc4ccc(C(=O)NC)nc4C#N)C3)cc2[nH]c1=O [Example 28]	3.9		3.3	15	> 100000
CNC(=O)c1ccc(O[C@@H]2CCN(Cc3cnc4cc(C5CC5)c(=O)[nH]c4c3)C2)cn1 [Example 3, 5-{[(3R)-1-[(7-cyclopropyl-6-oxo-5H-1,5-naphthyridin-3-yl)methyl]pyrrolidin-3-yl]oxy}-N-methylpyridine-2-carboxamide]	6.4		4.5	13	> 100000
[2H]C([2H])([2H])NC(=O)c1ccc(O[C@H]2CN(Cc3cnc4cc(CC)c(=O)[nH]c4c3)[C@@H]2C)cn1 [Example 39]	4.3	5900	1.1	1.3	
C[C@@H]1[C@@H](Oc2ccc(C(=O)NC3CC3)nc2)CN1Cc1cnc2cc(C(F)F)c(=O)[nH]c2c1 [Example 75, N-cyclopropyl-5-{[(2R,3S)-1-{[7-(difluoromethyl)-6-oxo-5H-1,5-naphthyridin-3-yl]methyl}-2-methylazetidin-3-yl]oxy}pyridine-2-carboxamide]	4		0.72	1.2	5200
CCc1cc2ncc(CN3C[C@H](n4ccc5nc(C(=O)NC)ccc54)[C@H]3C)cc2[nH]c1=O [Example 63, 1-[(2R,3S)-1-[(7-ethyl-6-oxo-5H-1,5-naphthyridin-3-yl)methyl]-2-methylazetidin-3-yl]-N-methylpyrrolo[3,2-b]pyridine-5-carboxamide]	6.6		3.6	4.8	9600
Cc1cc2ncc(CN3C[C@H](Oc4ccc(C#N)cc4)[C@H]3C)cc2[nH]c1=O [Example 47]	5.8		100	100	88000
CNC(=O)c1ccc(O[C@H]2CN(Cc3cnc4cc(C)c(=O)[nH]c4c3)[C@@H]2C)cn1 [Example 50]	11		8.7	5.3	83000
Cc1cc2ncc(CN3C[C@H](Oc4ccc(C#N)nc4)[C@H]3C)cc2[nH]c1=O [Example 37]	4.5		66	80	> 100000
CCc1cc2ncc(CN3CC[C@@](C)(Oc4ccc(C(=O)NC)nc4)C3)cc2[nH]c1=O [Example 12, 5-{[(3R)-1-[(7-ethyl-6-oxo-5H-1,5-naphthyridin-3-yl)methyl]-3-methylpyrrolidin-3-yl]oxy}-N-methylpyridine-2-carboxamide]	6.6		36	83	62000
Cc1cc2ncc(CN3C[C@H](Oc4ccc(C(=O)NC5CC5)nc4)[C@H]3C)cc2[nH]c1=O [Example 53]	8		1.3	2.2	61000
Cc1cc2ncc([C@@H](C)N3C[C@H](Oc4ccc(C#N)nc4)[C@H]3C)cc2[nH]c1=O (single isomer, unassigned) [Example 60]	> 100		> 1000	> 1000	> 100000
C[C@@H]1[C@@H](Oc2ccc(C(=O)NC3CC3)nc2)CN1Cc1cnc2c(c1)[nH]c(=O)c1ccoc12 [Example 84]	8.8		1.4	3	48000
